We go through twelve molecules from ChEMBL document CHEMBL1135394, “Improvement in the selectivity and metabolic stability of the serotonin 5-HT(1A) ligand, S 15535: a series of cis- and trans-2-(arylcycloalkylamine) 1-indanols” (J Med Chem, 2002).

In series [1] the target is T1, 5-hydroxytryptamine receptor 1A (Rattus norvegicus) (UniProt P19327).
T1 sequence (whole entry): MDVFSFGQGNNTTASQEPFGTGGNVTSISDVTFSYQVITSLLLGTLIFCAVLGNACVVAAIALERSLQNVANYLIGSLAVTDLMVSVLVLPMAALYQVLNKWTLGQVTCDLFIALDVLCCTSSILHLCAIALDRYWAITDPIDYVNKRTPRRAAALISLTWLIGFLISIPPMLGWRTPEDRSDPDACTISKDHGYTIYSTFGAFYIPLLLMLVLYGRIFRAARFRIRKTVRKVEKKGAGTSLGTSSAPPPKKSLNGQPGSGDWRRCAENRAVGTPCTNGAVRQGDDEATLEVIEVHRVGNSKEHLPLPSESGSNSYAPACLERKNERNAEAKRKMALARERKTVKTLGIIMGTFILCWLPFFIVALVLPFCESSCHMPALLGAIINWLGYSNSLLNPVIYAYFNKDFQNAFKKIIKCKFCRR
Kind of series: Antagonistic activity at postsynaptic 5-hydroxytryptamine 1A receptor was measured by its ability to inhibit hypothermia elicited by s.c. administration of 8-OH-DPAT in rat;ranges from (0.72-2.87). Type of series: functional, organism-based.

For series [2], the target named is T2, Adrenergic receptor alpha-1 (Rattus norvegicus, UniProt P15823+P23944+P43140).
T2 sequence (P15823 whole entry): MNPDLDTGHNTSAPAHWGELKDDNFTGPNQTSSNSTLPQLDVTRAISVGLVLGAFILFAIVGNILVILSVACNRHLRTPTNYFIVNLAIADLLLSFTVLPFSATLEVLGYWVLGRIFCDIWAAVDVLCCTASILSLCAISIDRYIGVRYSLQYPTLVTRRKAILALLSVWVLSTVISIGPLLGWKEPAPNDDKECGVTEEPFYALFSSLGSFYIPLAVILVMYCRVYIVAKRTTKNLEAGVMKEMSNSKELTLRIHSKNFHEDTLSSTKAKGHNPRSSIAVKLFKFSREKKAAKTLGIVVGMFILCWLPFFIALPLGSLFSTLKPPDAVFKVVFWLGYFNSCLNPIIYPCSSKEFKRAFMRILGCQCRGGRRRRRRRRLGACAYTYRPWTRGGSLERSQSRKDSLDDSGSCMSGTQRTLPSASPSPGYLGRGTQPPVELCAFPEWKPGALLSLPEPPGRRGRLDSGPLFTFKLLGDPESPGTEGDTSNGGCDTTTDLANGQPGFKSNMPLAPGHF
T2 sequence (P23944 whole entry): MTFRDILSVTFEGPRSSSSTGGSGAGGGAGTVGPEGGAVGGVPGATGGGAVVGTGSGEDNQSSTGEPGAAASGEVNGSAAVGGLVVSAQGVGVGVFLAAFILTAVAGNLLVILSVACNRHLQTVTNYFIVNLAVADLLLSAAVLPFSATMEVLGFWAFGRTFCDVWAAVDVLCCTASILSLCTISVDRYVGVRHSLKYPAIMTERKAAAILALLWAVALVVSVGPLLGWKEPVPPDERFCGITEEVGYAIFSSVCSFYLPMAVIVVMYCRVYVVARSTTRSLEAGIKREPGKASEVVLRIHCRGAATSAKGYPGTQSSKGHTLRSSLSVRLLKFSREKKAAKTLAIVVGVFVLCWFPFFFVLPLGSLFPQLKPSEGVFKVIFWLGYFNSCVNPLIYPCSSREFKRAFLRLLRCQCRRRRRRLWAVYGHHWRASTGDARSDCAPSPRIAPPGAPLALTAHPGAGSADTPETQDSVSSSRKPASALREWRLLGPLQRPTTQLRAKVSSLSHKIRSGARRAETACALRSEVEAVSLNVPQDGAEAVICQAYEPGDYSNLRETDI
T2 sequence (P43140 whole entry): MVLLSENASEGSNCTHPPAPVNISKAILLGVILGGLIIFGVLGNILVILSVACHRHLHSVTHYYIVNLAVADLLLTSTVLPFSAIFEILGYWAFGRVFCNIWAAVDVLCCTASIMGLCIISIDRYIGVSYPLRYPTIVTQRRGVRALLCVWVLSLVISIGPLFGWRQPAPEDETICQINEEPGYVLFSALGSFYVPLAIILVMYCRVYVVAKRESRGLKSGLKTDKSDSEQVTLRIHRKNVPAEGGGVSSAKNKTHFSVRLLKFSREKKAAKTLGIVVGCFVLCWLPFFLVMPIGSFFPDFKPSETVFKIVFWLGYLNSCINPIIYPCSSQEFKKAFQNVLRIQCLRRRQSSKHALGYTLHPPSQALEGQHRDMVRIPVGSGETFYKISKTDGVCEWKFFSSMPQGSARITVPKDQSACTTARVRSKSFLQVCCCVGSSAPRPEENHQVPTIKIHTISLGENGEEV
The series can be described thus: Binding affinity at Alpha-1 adrenergic receptor by inhibition of [3H]-prazosin binding to rat cortex.

Series [3] is described as follows: Selectivity ratio towards Alpha-1 adrenergic receptor to human 5-hydroxytryptamine 1A receptor.
The target in series [4] is T3, 5-hydroxytryptamine receptor 1A (Homo sapiens, UniProt P08908).
T3 sequence (P08908 whole entry): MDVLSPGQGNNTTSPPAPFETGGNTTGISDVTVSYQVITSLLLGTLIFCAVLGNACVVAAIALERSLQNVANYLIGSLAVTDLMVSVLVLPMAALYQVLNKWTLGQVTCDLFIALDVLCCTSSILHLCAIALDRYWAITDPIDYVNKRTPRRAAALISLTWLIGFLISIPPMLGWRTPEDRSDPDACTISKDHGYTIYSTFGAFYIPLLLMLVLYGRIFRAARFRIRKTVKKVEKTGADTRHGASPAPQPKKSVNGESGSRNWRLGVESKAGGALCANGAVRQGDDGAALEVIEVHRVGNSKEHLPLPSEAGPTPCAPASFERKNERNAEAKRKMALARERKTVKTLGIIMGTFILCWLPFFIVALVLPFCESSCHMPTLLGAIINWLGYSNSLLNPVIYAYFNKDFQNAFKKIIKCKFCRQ
Kind of series: Binding affinity at human 5-hydroxytryptamine 1A receptor by inhibition of [3H]8-OH-DPAT binding in Chinese hamster ovary cell line. Type of series: cell-based.

Series [5] can be described thus: In vitro oral metabolic bioavailability after incubation with hepatic microsomes. In kind it is ADME, Liver. Particulars: read-out: MF.
Series [6] has as its target T4, 5-hydroxytryptamine receptor 1A (Homo sapiens) (UniProt P08908).
T4 sequence (whole entry): T3 sequence (P08908 whole entry)
The series can be described thus: Agonist efficacy of [35S]GTP-gamma-S, binding to 5-hydroxytryptamine 1A receptor compared with 5-HT. Type of series: functional. A general note: GTPγS resists hydrolysis and so accumulates on activated G proteins.

The target in series [7] is T1, 5-hydroxytryptamine receptor 1A (Rattus norvegicus).
Series [8] shares this target. Kind of series: Antagonistic activity at postsynaptic 5-hydroxytryptamine 1A receptor was measured by its ability to inhibit hypothermia elicited by s.c. administration of 8-OH-DPAT in rat;ranges from (0.45-4.51). Type of series: functional, organism-based.
Series [9] has the same target. Kind of series: Antagonistic activity at postsynaptic 5-hydroxytryptamine 1A receptor was measured by its ability to inhibit hypothermia elicited by s.c. administration of 8-OH-DPAT in rat;ranges from (0.10-6.20). In kind it is functional, organism-based.
For series [10] the target is unchanged. Kind of series: Antagonistic activity at postsynaptic 5-hydroxytryptamine 1A receptor was measured by its ability to inhibit hypothermia elicited by s.c. administration of 8-OH-DPAT in rat;ranges from (0.20-1.80). In kind it is functional, organism-based.
For series [11] the target is unchanged. The series can be described thus: Antagonistic activity at postsynaptic 5-HT1A receptor was measured by its ability to inhibit hypothermia elicited by s.c. administration of 8-OH-DPAT in rat;ranges from (.26-3.52). Type of series: functional, organism-based.
For series [12] the target is unchanged. The series can be described thus: Antagonistic activity at postsynaptic 5-hydroxytryptamine 1A receptor was measured by its ability to inhibit hypothermia elicited by s.c. administration of 8-OH-DPAT in rat;ranges from (0.50-5.30). In kind it is functional, organism-based.
Series [13] has the same target. Kind of series: Antagonistic activity at postsynaptic 5-hydroxytryptamine 1A receptor was measured by its ability to inhibit hypothermia elicited by s.c. administration of 8-OH-DPAT in rat;ranges from (2.20-30.5). Type of series: functional, organism-based.
The target is the same in series [14]. The series can be described thus: Antagonistic activity at postsynaptic 5-hydroxytryptamine 1A receptor was measured by its ability to inhibit hypothermia elicited by s.c. administration of 8-OH-DPAT in rat;ranges from (0.60-1.60). In kind it is functional, organism-based.
Series [15] shares this target. Kind of series: Antagonistic activity at postsynaptic 5-hydroxytryptamine 1A receptor was measured by its ability to inhibit hypothermia elicited by s.c. administration of 8-OH-DPAT in rat;ranges from (0.40-4). In kind it is functional, organism-based.
The target is the same in series [16]. Kind of series: Antagonistic activity at postsynaptic 5-hydroxytryptamine 1A receptor was measured by its ability to inhibit hypothermia elicited by s.c. administration of 8-OH-DPAT in rat;ranges from (0.20-1.60). Type of series: functional, organism-based.
The target is the same in series [17]. Kind of series: Antagonistic activity at postsynaptic 5-hydroxytryptamine 1A receptor was measured by its ability to inhibit hypothermia elicited by s.c. administration of 8-OH-DPAT in rat;ranges is not computable. Type of series: functional, organism-based.

A word on the Ki: it is a dissociation constant, usually derived from enzyme kinetics or from competition with a known ligand. A low value points to a stronger hold on the target. On to `c1ccc2c(c1)CC(N1CCN(c3cccc4c3OCCO4)CC1)C2`, for which the ID50 in [1] was determined as 1.44 mg/kg. For the same molecule, the “Log Ki” value in series [2] was -6.9. The Ratio in series [3] stood at 158. For the same molecule, the affinity in [4] corresponds to a Ki of 0.794 nM. The Fh in series [5] was found to be 4%.
Turning to `COc1ccc2c(c1)C[C@@H](N1CCN(c3cccc4c3OCCO4)CC1)[C@@H]2O` (racemic), the Ratio in series [3] was found to be 224. The molecule further had an Efficacy in [6] of 21%. Besides, the ID50 in series [7] was 0.72 mg/kg.
Consider `O[C@@H]1c2ccc(F)cc2C[C@H]1N1CCN(c2cccc3c2OCCO3)CC1` (racemic), for which, in series [3], the Ratio was found to be 562. This molecule had an ID50 in [8] of 1.42 mg/kg.
Regarding `O=[N+]([O-])c1ccc2c(c1)[C@@H](O)[C@H](N1CCN(c3cccc4c3OCCO4)CC1)C2` (relative stereo), the “Log Ki” value in series [2] is given as -6.03. For the same molecule, the Ratio in series [3] was found to be 1260. In addition, the ID50 in series [9] amounted to 0.9 mg/kg. Also, in [4], the Ki was 0.741 nM. The Fh in series [5] came to 71%.
Regarding `COc1ccc2c(c1)[C@@H](O)[C@H](N1CCC(c3cccc4c3OCCO4)CC1)C2` (relative stereo), the “Log Ki” value in series [2] is on record as -7.22. Further, in series [3], the Ratio was determined as 55. For the same molecule, the affinity in [4] corresponds to a Ki of 1.1 nM. The same molecule came in with an ID50 in series [10] of 0.6 mg/kg.
For `O[C@@H]1c2ccccc2C[C@H]1N1CCN(c2cccc3c2OCCO3)CC1` (relative stereo), the “Log Ki” value in series [2] is given as -6.03. Besides, the ID50 in series [11] was determined as 0.96 mg/kg. In series [3], the Ratio is 575. The molecule also gave an inhibition constant (Ki) in series [4] of 1.62 nM. Moreover, the Fh in series [5] was 21%. Moreover, the Efficacy in series [6] stood at 52%.
Regarding `O[C@@H]1c2ccc(F)cc2C[C@H]1N1CC=C(c2cccc3c2OCCO3)CC1` (relative stereo), in [2], the “Log Ki” value was -6.96. Besides, in series [3], the Ratio stood at 128. For the same molecule, the affinity in [4], expressed as Ki, was 0.851 nM. In addition, in series [5], the Fh came out at 8%. In series [12], this molecule came in with an ID50 of 1.7 mg/kg.
With `O=[N+]([O-])c1ccc2c(c1)[C@@H](O)[C@H](N1CCC(c3cccc4c3OCCO4)CC1)C2` (relative stereo), the “Log Ki” value in series [2] is recorded as -6.95. Also, the ID50 in series [13] worked out at 8.1 mg/kg. The Ratio in [3] is 389. Further, in series [4], the Ki was 0.288 nM. Besides, the Fh in series [5] came out at 22%.
For the molecule `O[C@@H]1c2cc3c(cc2C[C@H]1N1CCC(c2cccc4c2OCCO4)CC1)OCO3` (relative stereo), the “Log Ki” value in series [2] was -7.53. For the same molecule, in series [14], the ID50 was found to be 1 mg/kg. For the same molecule, the Ratio in series [3] came to 56. The inhibition constant (Ki) in series [4] is 0.525 nM. Further, in series [5], the Fh was 8%.
Consider `O[C@@H]1c2ccccc2C[C@H]1N1CC=C(c2cccc3c2OCCO3)CC1` (relative stereo), for which the “Log Ki” value in series [2] was -7. For the same molecule, the Ratio in series [3] was 120. For the same molecule, the affinity in series [4], expressed as Ki, was 0.832 nM. In [15], this molecule returned an ID50 of 1.3 mg/kg. For the same molecule, the Fh in [5] worked out at 4%.
Take `O[C@@H]1c2ccccc2C[C@H]1N1CCC(c2cccc3c2OCCO3)CC1` (relative stereo): the “Log Ki” value in [2] is reported as -7.1. In addition, the Ratio in series [3] was 112. For the same molecule, the Ki in series [4] was 0.708 nM. Further, the Fh in series [5] is 7%. Moreover, the ID50 in series [16] is 0.5 mg/kg.
For the molecule `O[C@@H]1c2cc(F)c(F)cc2C[C@H]1N1CCN(c2cccc3c2OCCO3)CC1` (relative stereo), in series [17], the ID50 was 2.5 mg/kg. The “Log Ki” value in series [2] is on record as -6.15. In [3], the Ratio amounted to 332. The molecule further showed a Ki in [4] of 2.14 nM. The Fh in series [5] was determined as 51%.
